Reference: US11987586B1 (TAKEDA PHARMACEUTICAL COMPANY LIMITED, priority 2022, dated 2024)

Target: T1, human OX2 receptor (Homo sapiens, UniProt O43614)
T1 construct: expressed in transfected cells
T1 sequence (O43614 1-444): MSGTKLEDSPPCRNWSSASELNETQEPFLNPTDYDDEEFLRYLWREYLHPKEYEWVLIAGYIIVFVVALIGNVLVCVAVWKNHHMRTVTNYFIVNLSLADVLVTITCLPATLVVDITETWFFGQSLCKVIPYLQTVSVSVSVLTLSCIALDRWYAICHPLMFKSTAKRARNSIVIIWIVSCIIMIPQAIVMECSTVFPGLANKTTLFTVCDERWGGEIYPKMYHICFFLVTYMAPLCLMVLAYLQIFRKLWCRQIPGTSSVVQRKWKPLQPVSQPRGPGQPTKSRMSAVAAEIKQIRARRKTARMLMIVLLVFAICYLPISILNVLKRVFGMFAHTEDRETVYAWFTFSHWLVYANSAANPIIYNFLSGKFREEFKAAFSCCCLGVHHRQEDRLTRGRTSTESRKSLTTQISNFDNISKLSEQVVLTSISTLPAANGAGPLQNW
Experiment: Measurement of orexin type 2 receptor agonist activity (calcium fluorescence, Fluo-4, FDSS)
Type: cell-based
Conditions: 3 uM test compound; CHO cells expressing human OX2 receptor; DMSO = 0%, 10 nM orexin A (human) = 100%
Procedure: In order to obtain cell clones that stably express human orexin type 2 receptor, human orexin type 2 (residues 1-444, NCBI Reference Sequence: AK314279) was constructed in a pcDNA3.1 (+) vector (Invitrogen) to express in mammalian cells. This plasmid DNA was transfected into CHO-K1 cells by electroporation, and stable clones were obtained by limiting dilution using resistance to G418 as a selection marker.
CHO cells in which human OX2 receptor was forcibly expressed were seeded at 10,000 cells/well into a 384-well black transparent bottom plate (BD falcon), and were incubated at 37° C., 5% CO2 for 1 day after incubation at room temperature for 30 minutes. After removing the cell plate medium, assay buffer containing calcium indicator A (HBSS (Thermo Fisher Scientific), 20 mM HEPES (Thermo Fisher Scientific), 0.1% BSA (Sigma-Aldrich), 2.5 μg/mL Fluo-4 AM (Dojin Kagaku), 0.08% Pluronic F127 (Dojin Kagaku), 1.25 mM probenecid (Dojin Kagaku)) was added at 30 μL/well. After incubation in a 5% CO2 incubator at 37° C. for 30 minutes, it was incubated at room temperature for another 30 minutes. Add 10 μL/well of the test compound diluted with assay buffer B (HBSS, 20 mM HEPES, 0.1% BSA), and use FDSS μCELL (Hamamatsu Photonics) to measure the fluorescence value every 1 second for 1 minute, and then every 2 seconds for 1 minute. It was measured for 1 minute and 40 seconds. The amount of fluorescence value when DMSO is added instead of the test compound is defined as 0%, and the amount of fluorescence value when orexin A (human) (Peptide Institute) with a final concentration of 10 nM is added is defined as 100%. The activity (%) of the test compound was calculated.

First: CCS(=O)(=O)N[C@@H]1CN2C(=O)N(c3noc4cccc(-c5c(F)cccc5F)c34)C[C@@H]2[C@@H]1F (relative stereo) [Example 4, rel-N-{(6R,7S,7aR)-2-[4-(2,6-difluorophenyl)-1,2-benzoxazol-3-yl]-7-fluoro-3-oxohexahydro-1H-pyrrolo[1,2-c]imidazol-6-yl}ethanesulfonamide]
Second: CCS(=O)(=O)N[C@@H]1Cn2c(cn(-c3noc4cccc(-c5c(F)cccc5F)c34)c2=O)[C@@H]1F (relative stereo) [Example 129, rel-N-{(6R, 7R)-2-[4-(2,6-difluorophenyl)-1,2-benzoxazol-3-yl]-7-fluoro-3-oxo-2,5,6,7-tetrahydro-3H-pyrrolo[1,2-c]imidazol-6-yl}ethanesulfonamide]
The “OX2R agonist activity (3 uM, %)” value of the first is higher: 105% for the first, 103% for the second.

Going from CS(=O)(=O)N[C@@H]1CC[C@H]2CN(c3noc4cccc(-c5c(F)cccc5F)c34)C(=O)N2C1 (relative stereo) [Example 63, rel-N-{(6R, 8aS)-2-[4-(2,6-difluorophenyl)-1,2-benzoxazol-3-yl]-3-oxooctahydroimidazo[1,5-a]pyridin-6-yl}methanesulfonamide] to CS(=O)(=O)N[C@@H]1CN2C(=O)N(c3noc4cccc(-c5c(F)cccc5F)c34)C[C@H]2CC1(F)F (relative stereo) [Example 216, rel-N-{(6R,8aR)-2-[4-(2,6-difluorophenyl)-1,2-benzoxazol-3-yl]-7,7-difluoro-3-oxooctahydroimidazo[1,5-a]pyridin-6-yl}methanesulfonamide], the “OX2R agonist activity (3 uM, %)” value falls from 107% to 101%.

First: CCS(=O)(=O)N[C@H]1Cn2c(cn(-c3noc4cccc(-c5c(F)cccc5F)c34)c2=O)[C@H]1C (relative stereo) [Example 109, rel-N-{(6R,7S)-2-[4-(2,6-difluorophenyl)-1,2-benzoxazol-3-yl]-7-methyl-3-oxo-2,5,6,7-tetrahydro-3H-pyrrolo[1,2-c]imidazol-6-yl}ethanesulfonamide]
Second: CCS(=O)(=O)N[C@H]1Cn2c(cn(-c3noc4cccc(-c5c(F)cccc5F)c34)c2=O)[C@@H]1C (relative stereo) [Example 131, rel-N-{(6R, 7R)-2-[4-(2,6-difluorophenyl)-1,2-benzoxazol-3-yl]-7-methyl-3-oxo-2,5,6,7-tetrahydro-3H-pyrrolo[1,2-c]imidazol-6-yl}ethanesulfonamide]
The “OX2R agonist activity (3 uM, %)” value of the first is higher: 103% for the first, 96% for the second.

First: CS(=O)(=O)N[C@@H]1CN2C(=O)N(c3noc4cccc(-c5c(F)cc(F)cc5F)c34)C(O)[C@@H]2C1(F)F (relative stereo) [Example 125, N-{(1R*,6R,7aR)-7,7-difluoro-1-hydroxy-3-oxo-2-[4-(2,4,6-trifluorophenyl)-1,2-benzoxazol-3-yl]hexahydro-1H-pyrrolo[1,2-c]imidazol-6-yl}methanesulfonamide]
Second: CS(=O)(=O)NC1Cn2c(cn(-c3noc4cc(F)cc(-c5c(F)cc(F)cc5F)c34)c2=O)CC1(F)F (single isomer, unassigned) [Example 214, N-{(6R*)-7,7-difluoro-2-[6-fluoro-4-(2,4,6-trifluorophenyl)-1,2-benzoxazol-3-yl]-3-oxo-2,3,5,6,7,8-hexahydroimidazo[1,5-a]pyridin-6-yl}methanesulfonamide]
The “OX2R agonist activity (3 uM, %)” value of the first is lower: 103% for the first, 106% for the second.

First: CS(=O)(=O)N[C@@H]1C[C@H]2CN(c3noc4cccc(-c5c(F)cccc5F)c34)C(=O)[C@H]2C1 (relative stereo) [Example 337, rel-N-{(3aR,5R,6aS)-2-[4-(2,6-difluorophenyl)-1,2-benzoxazol-3-yl]-1-oxooctahydrocyclopenta[c]pyrrol-5-yl}methanesulfonamide]
Second: CS(=O)(=O)N[C@H]1C[C@H]2CN(c3noc4cccc(-c5c(F)cccc5F)c34)C(=O)[C@H]2C1 (relative stereo) [Example 338, rel-N-{(3aR,5S,6aS)-2-[4-(2,6-difluorophenyl)-1,2-benzoxazol-3-yl]-1-oxooctahydrocyclopenta[c]pyrrol-5-yl}methanesulfonamide]
The “OX2R agonist activity (3 uM, %)” value of the first is lower: 79% for the first, 100% for the second.

First: CCS(=O)(=O)NC1Cn2c(cn(-c3noc4cccc(-c5c(F)cccc5F)c34)c2=O)C1(F)F (single isomer, unassigned) [Example 5, N-{(6R*)-2-[4-(2,6-difluorophenyl)-1,2-benzoxazol-3-yl]-7,7-difluoro-3-oxo-2,5,6,7-tetrahydro-3H-pyrrolo[1,2-c]imidazol-6-yl}ethanesulfonamide]
Second: CCS(=O)(=O)NC1Cn2c(cn(-c3noc4cccc(-c5c(F)cccc5F)c34)c2=O)CC1(F)F (single isomer, unassigned) [Example 181, N-{(6R*)-2-[4-(2,6-difluorophenyl)-1,2-benzoxazol-3-yl]-7,7-difluoro-3-oxo-2,3,5,6,7,8-hexahydroimidazo[1,5-a]pyridin-6-yl}ethanesulfonamide]
The “OX2R agonist activity (3 uM, %)” value of the first is higher: 106% for the first, 105% for the second.

First: CS(=O)(=O)NC1Cn2c(cn(-c3noc4cccc(-c5c(F)cccc5F)c34)c2=O)CC1(F)F (single isomer, unassigned) [Example 117, N-{(6R*)-2-[4-(2,6-difluorophenyl)-1,2-benzoxazol-3-yl]-7,7-difluoro-3-oxo-2,3,5,6,7,8-hexahydroimidazo[1,5-a]pyridin-6-yl}methanesulfonamide]
Second: CS(=O)(=O)NC1Cn2c(cn(-c3noc4ccc(F)c(-c5c(F)cc(F)cc5F)c34)c2=O)CC1(F)F (single isomer, unassigned) [Example 231, N-{(6R*)-7,7-difluoro-2-[5-fluoro-4-(2,4,6-trifluorophenyl)-1,2-benzoxazol-3-yl]-3-oxo-2,3,5,6,7,8-hexahydroimidazo[1,5-a]pyridin-6-yl}methanesulfonamide]
The “OX2R agonist activity (3 uM, %)” value of the first is lower: 97% for the first, 103% for the second.

Compared with CCS(=O)(=O)NC1Cn2c(cn(-c3noc4cc(F)cc(-c5c(F)cc(F)cc5F)c34)c2=O)CC1(F)F (single isomer, unassigned) [Example 240, N-{(6R*)-7,7-difluoro-2-[6-fluoro-4-(2,4,6-trifluorophenyl)-1,2-benzoxazol-3-yl]-3-oxo-2,3,5,6,7,8-hexahydroimidazo[1,5-a]pyridin-6-yl}ethanesulfonamide], CCS(=O)(=O)NC1Cn2c(cn(-c3noc4ccc(F)c(-c5c(F)cc(F)cc5F)c34)c2=O)CC1(F)F (single isomer, unassigned) [Example 246, N-{(6R*)-7,7-difluoro-2-[5-fluoro-4-(2,4,6-trifluorophenyl)-1,2-benzoxazol-3-yl]-3-oxo-2,3,5,6,7,8-hexahydroimidazo[1,5-a]pyridin-6-yl}ethanesulfonamide] is higher in “OX2R agonist activity (3 uM, %)” value: 106% for the first, 107% for the second.

Compared with Cc1cc(-c2c(F)cc(F)cc2F)c2c(-n3cc4n(c3=O)CC(NS(C)(=O)=O)C(F)(F)C4)noc2n1 (single isomer, unassigned) [Example 245, N-{(6R*)-7,7-difluoro-2-[6-methyl-4-(2,4,6-trifluorophenyl)[1,2]oxazolo[5,4-b]pyridin-3-yl]-3-oxo-2,3,5,6,7,8-hexahydroimidazo[1,5-a]pyridin-6-yl}methanesulfonamide], Cc1cc2onc(-n3cc4n(c3=O)CC(NS(C)(=O)=O)C(F)(F)C4)c2c(-c2c(F)cc(F)cc2F)n1 (single isomer, unassigned) [Example 289, N-{(6R*)-7,7-difluoro-2-[6-methyl-4-(2,4,6-trifluorophenyl)[1,2]oxazolo[4,5-c]pyridin-3-yl]-3-oxo-2,3,5,6,7,8-hexahydroimidazo[1,5-a]pyridin-6-yl}methanesulfonamide] is lower in “OX2R agonist activity (3 uM, %)” value: 108% for the first, 97% for the second.

Going from CCS(=O)(=O)NC1Cn2c(C)c(-c3noc4cccc(-c5c(F)cccc5F)c34)c(=O)n2C1 (single isomer, unassigned) [Example 336, N-{(2R*)-6-[4-(2,6-difluorophenyl)-1,2-benzoxazol-3-yl]-7-methyl-5-oxo-2,3-dihydro-1H,5H-pyrazolo[1,2-a]pyrazol-2-yl}ethanesulfonamide] to CCS(=O)(=O)NC1Cn2cc(-c3noc4cccc(-c5c(F)cccc5F)c34)c(=O)n2C1 (single isomer, unassigned) [Example 339, N-{(2R*)-6-[4-(2,6-difluorophenyl)-1,2-benzoxazol-3-yl]-5-oxo-2,3-dihydro-1H,5H-pyrazolo[1,2-a]pyrazol-2-yl}ethanesulfonamide], the “OX2R agonist activity (3 uM, %)” value falls from 98% to 96%.
